Results from US20210054106A1, “OMNIPHILIC NANO-VESICLES BASED ON MODIFIED POLYSACCHARIDES FOR DELIVERY OF ACTIVE AGENTS” (THE STATE OF ISRAEL, MINISTRY OF AGRICULTURE & RURAL …, priority 2018, published 2021).

Assay: Franz diffusion cell model, RB permeation
Assay type: in vitro ADME
Conditions: sunflower oil donor, PBS pH 7.4 receptor, 32 °C, up to 16 h

- RB permeation across lipophilic membrane into aqueous phase: scarcely permeates
Structure (SMILES): CCN(CC)c1ccc2c(-c3ccccc3C(=O)O)c3ccc(=[N+](CC)CC)cc-3oc2c1.[Cl-] [RB, Rhodamine B]
